Measurements as given in patent US20220125838A1, “IMMUNOMODULATORY GLYCOSPHINGOLIPIDS AND METHODS OF USE THEREOF” (President and Fellows of Harvard College, priority 2019, published 2022).

Tested on: NKT cells
Assay: In vivo cytokine assay (serum IL-2, IFN-γ, IL-4 after intraperitoneal injection)
Set-up: species or system mice
Details: 1 μg per mouse intraperitoneally
Experimental: To investigate the relevance of structural variation to immunomodulatory function, an in vitro panel screening assay of synthetic BfaGCs was carried out in a co-culture system with bone marrow-derived dendritic cells (BMDCs) and NKT cells. Levels of interleukin 2 (IL-2) production in the presence of individual BfaGCs clearly distinguished two groups with different levels of NKT cell recognition: strong and weak stimulators (FIG. 3A). Strikingly, all 10 strong stimulators have branched (either ω-2 or ω-3) sphinganine chains, whereas none of 11 weak stimulators have such branching. […] These molecules were individually injected into mice (1 μg per mouse, intraperitoneally), and systemic levels of cytokines were quantified and directly compared to those in mice injected with KRN7000 (a prototypic Th1 agonist) and mice injected with OCH (a Th2 agonist). Serum IL-2 levels 2 h after injection show trends consistent with in vitro results (KRN7000>SB2217>SB2219), which implies that BfaGCs are also functioning in vivo (FIG. 3B). […] Although It is well established that aGCs with very long fatty acyl chains (e.g., KRN7000, which has a C26 saturated chain) selectively induce Th1-type cytokines and that shorter-sphingoid-chain aGCs (e.g., OCH, which has a C8 saturated chain) skew toward Th2, aGCs with acyl and sphingoid chain lengths of long-chain fatty acids (C15-C19), prominently identified in B. fragilis, are less well investigated (21).
Mice (n=4 per group) were given 100 uL of KRN7000, OCH, SB2217 or SB2219 solution (1 ug, 0.9% DMSO in PBS) intraperitoneally. Animals were bled at 2 hours after injection from tail vein (˜100 uL per animal). At 18 hours after injection, animals were euthanized and second 100 uL blood was drawn by cardiac puncture. Fresh blood was collected to Z-Gel tubes (Sarstedt) to form blood clot and spun at 10,000×g for 5 minutes for serum separation. Samples were frozen at −80 degree until analysis by multiplex ELISA (Eve Technologies, Calgary, Canada).

[1] = serum at observed time points (2 and 18 hours)

| Compound | Th2 cytokine (IL-4) induction in vivo [1] | serum IL-2 level (2 h after injection) | Th1 cytokine (IFN-γ) induction in vivo [1] |
| --- | --- | --- | --- |
| CCCCCCCCCCCCCCCCCCCCCCCC(=O)N[C@@H](CO[C@H]1O[C@H](CO)[C@H](O)[C@H](O)[C@H]1O)[C@H](O)[C@H](O)CCCCC [OCH] | stimulates IL-4 | – | – |
| CCCCCCCCCCCCCCCCCCCCCCCCCC(=O)N[C@@H](CO[C@H]1O[C@H](CO)[C@H](O)[C@H](O)[C@H]1O)[C@H](O)[C@H](O)CCCCCCCCCCCCCC [KRN7000] | – | KRN7000>SB2217>SB2219 | stimulates IFN-gamma |
